Structures are written as SMILES. Activity calls are given as the source filed them. No cut-off for these calls is given here.

Experiment [1] is filed under the species Homo sapiens. Put plainly: Inhibition of human mitochondrial NADP-ME E59L mutant expressed in Escherichia coli XL-1 assessed as residual enzyme activity by spectrophotometry in presence of fumarate.
For experiment [2], the species on record is Homo sapiens. The experiment is described as follows: Inhibition of human mitochondrial NADP-ME E59L mutant expressed in Escherichia coli XL-1 assessed as residual enzyme activity by spectrophotometry in absence of fumarate.
Experiment [3] is filed under the species Homo sapiens. Put plainly: Activation of human mitochondrial NADP-ME E59L mutant expressed in Escherichia coli XL-1 by spectrophotometry.

In the case of `O=C(O)CC(=O)O`, the outcome in experiment [1] and in experiment [2] was Active.
Take `O=C(O)/C=C\C(=O)O`: the result in experiment [1] and in experiment [2] was Active.
For the compound `O=C(O)/C=C/CC(=O)O`, the result in experiment [1] and in experiment [2] was Active.
As for `O=C(O)/C=C/C(=O)O`, the result in experiment [3] was inactive.
